Test results from ChEMBL document CHEMBL4649992, “Discovery of I-BRD9, a Selective Cell Active Chemical Probe for Bromodomain Containing Protein 9 Inhibition” (J Med Chem, 2016).

Experiments:
[1] = biological target: Bromodomain-containing protein 2 (Homo sapiens) (UniProt P25440); settings: Compound concentration 10.0 uM, Protein concentration 2.0 uM
[2] = biological target: Bromodomain-containing protein 7 (Homo sapiens) (UniProt Q9NPI1); settings: Compound concentration 10.0 uM, Protein concentration 2.0 uM
[3] = biological target: Chromatin remodeling regulator CECR2 (Homo sapiens) (UniProt Q9BXF3); settings: Compound concentration 10.0 uM, Protein concentration 2.0 uM
Peregrin (Homo sapiens) [4] = biological target: T1, Peregrin (Homo sapiens) (UniProt P55201); settings: Compound concentration 10.0 uM, Protein concentration 2.0 uM
T1 sequence (whole entry): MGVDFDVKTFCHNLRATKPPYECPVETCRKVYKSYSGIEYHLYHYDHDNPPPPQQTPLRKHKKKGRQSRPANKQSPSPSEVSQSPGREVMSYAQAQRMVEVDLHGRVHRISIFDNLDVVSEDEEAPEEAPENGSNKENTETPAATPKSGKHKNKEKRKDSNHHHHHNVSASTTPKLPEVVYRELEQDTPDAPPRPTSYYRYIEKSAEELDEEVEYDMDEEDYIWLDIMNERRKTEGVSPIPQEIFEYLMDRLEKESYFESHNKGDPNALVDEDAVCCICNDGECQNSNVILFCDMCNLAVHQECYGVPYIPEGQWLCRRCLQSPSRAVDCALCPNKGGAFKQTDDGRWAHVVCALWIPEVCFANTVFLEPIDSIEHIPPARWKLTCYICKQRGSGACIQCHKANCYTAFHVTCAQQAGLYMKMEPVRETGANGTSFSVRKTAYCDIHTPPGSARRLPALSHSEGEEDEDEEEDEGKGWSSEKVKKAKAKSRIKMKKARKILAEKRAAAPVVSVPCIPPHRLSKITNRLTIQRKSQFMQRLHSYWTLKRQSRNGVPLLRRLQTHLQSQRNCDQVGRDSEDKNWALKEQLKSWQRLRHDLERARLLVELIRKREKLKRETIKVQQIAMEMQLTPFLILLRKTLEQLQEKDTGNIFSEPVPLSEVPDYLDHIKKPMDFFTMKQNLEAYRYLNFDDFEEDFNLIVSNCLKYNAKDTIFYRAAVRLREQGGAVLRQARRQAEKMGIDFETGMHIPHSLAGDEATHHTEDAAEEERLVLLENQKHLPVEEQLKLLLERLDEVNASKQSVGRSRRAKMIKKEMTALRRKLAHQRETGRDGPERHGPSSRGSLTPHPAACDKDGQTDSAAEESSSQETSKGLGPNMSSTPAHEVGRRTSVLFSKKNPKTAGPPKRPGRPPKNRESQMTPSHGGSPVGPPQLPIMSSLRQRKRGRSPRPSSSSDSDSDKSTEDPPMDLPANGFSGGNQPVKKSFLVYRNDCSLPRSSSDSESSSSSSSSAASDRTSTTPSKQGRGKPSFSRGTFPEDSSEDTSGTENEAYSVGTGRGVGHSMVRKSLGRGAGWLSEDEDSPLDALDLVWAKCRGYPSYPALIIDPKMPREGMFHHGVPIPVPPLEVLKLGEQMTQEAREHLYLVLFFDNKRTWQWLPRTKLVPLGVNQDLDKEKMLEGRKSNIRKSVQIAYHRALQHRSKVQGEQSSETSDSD

[5] = biological target: Transcription initiation factor TFIID subunit 1-like (Homo sapiens) (UniProt Q8IZX4); settings: Compound concentration 10.0 uM, Protein concentration 2.0 uM
[6] = biological target: Transcription initiation factor TFIID subunit 1 (Homo sapiens) (UniProt P21675); settings: Compound concentration 10.0 uM, Protein concentration 2.0 uM
[7] = biological target: Bromodomain and PHD finger-containing protein 3 (Homo sapiens) (UniProt Q9ULD4); settings: Compound concentration 10.0 uM, Protein concentration 2.0 uM
[8] = biological target: Nucleosome-remodeling factor subunit BPTF (Homo sapiens) (UniProt Q12830); settings: Compound concentration 10.0 uM, Protein concentration 2.0 uM
[9] = biological target: Bromodomain-containing protein 9 (Homo sapiens) (UniProt Q9H8M2); settings: Compound concentration 10.0 uM, Protein concentration 2.0 uM
[10] = biological target: Transcription initiation factor TFIID subunit 1-like (Homo sapiens) (UniProt Q8IZX4); settings: Compound concentration 10.0 uM, Protein concentration 2.0 uM; remark: listed apart in the source
[11] = biological target: Bromodomain-containing protein 4 (Homo sapiens) (UniProt O60885); settings: Compound concentration 10.0 uM, Protein concentration 2.0 uM
[12] = biological target: Chromatin remodeling regulator CECR2 (Homo sapiens) (UniProt Q9BXF3); settings: Protein concentration 19.0 uM
[13] = biological target: Bromodomain-containing protein 2 (Homo sapiens) (UniProt P25440); settings: Compound concentration 10.0 uM, Protein concentration 2.0 uM; remark: listed apart in the source
[14] = biological target: Protein polybromo-1 (Homo sapiens) (UniProt Q86U86); settings: Compound concentration 10.0 uM, Protein concentration 2.0 uM
[15] = biological target: ATPase family AAA domain-containing protein 2 (Homo sapiens) (UniProt Q6PL18); settings: Compound concentration 10.0 uM, Protein concentration 2.0 uM
[16] = biological target: Transcription intermediary factor 1-alpha (Homo sapiens) (UniProt O15164); settings: Compound concentration 10.0 uM, Protein concentration 2.0 uM
[17] = biological target: Histone-lysine N-methyltransferase 2A (Homo sapiens) (UniProt Q03164); settings: Compound concentration 10.0 uM, Protein concentration 2.0 uM
[18] = biological target: Transcription initiation factor TFIID subunit 1 (Homo sapiens) (UniProt P21675); settings: Compound concentration 10.0 uM, Protein concentration 2.0 uM; remark: listed apart in the source
[19] = biological target: Bromodomain testis-specific protein (Homo sapiens) (UniProt Q58F21); settings: Compound concentration 10.0 uM, Protein concentration 2.0 uM
[20] = biological target: Nucleosome-remodeling factor subunit BPTF (Homo sapiens) (UniProt Q12830)
Description: Alphascreen assay. Domain start/stop: S2791-H2911

[21] = biological target: Bromodomain-containing protein 3 (Homo sapiens) (UniProt Q15059); settings: Compound concentration 10.0 uM, Protein concentration 2.0 uM
[22] = biological target: CREB-binding protein (Homo sapiens) (UniProt Q92793); settings: Compound concentration 10.0 uM, Protein concentration 2.0 uM
[23] = biological target: Nuclear body protein SP140-like protein (Homo sapiens) (UniProt Q9H930); settings: Compound concentration 10.0 uM, Protein concentration 2.0 uM
[24] = biological target: Bromodomain-containing protein 4 (Homo sapiens) (UniProt O60885); settings: Compound concentration 10.0 uM, Protein concentration 2.0 uM; remark: listed apart in the source
[25] = biological target: Histone acetyltransferase KAT2B (Homo sapiens) (UniProt Q92831); settings: Compound concentration 10.0 uM, Protein concentration 2.0 uM
[26] = biological target: Histone-lysine N-methyltransferase ASH1L (Homo sapiens) (UniProt Q9NR48); settings: Compound concentration 10.0 uM, Protein concentration 2.0 uM
[27] = biological target: Bromodomain and WD repeat-containing protein 1 (Homo sapiens) (UniProt Q9NSI6); settings: Compound concentration 10.0 uM, Protein concentration 2.0 uM
[28] = biological target: Bromodomain testis-specific protein (Homo sapiens) (UniProt Q58F21); settings: Compound concentration 10.0 uM, Protein concentration 2.0 uM; remark: listed apart in the source
[29] = biological target: Protein polybromo-1 (Homo sapiens) (UniProt Q86U86); settings: Compound concentration 10.0 uM, Protein concentration 2.0 uM; remark: listed apart in the source
[30] = biological target: Bromodomain adjacent to zinc finger domain protein 1A (Homo sapiens) (UniProt Q9NRL2); settings: Compound concentration 10.0 uM, Protein concentration 2.0 uM
[31] = biological target: SWI/SNF-related matrix-associated actin-dependent regulator of chromatin subfamily A member 4 (Homo sapiens) (UniProt P51532); settings: Compound concentration 10.0 uM, Protein concentration 2.0 uM
[32] = biological target: ATPase family AAA domain-containing protein 2B (Homo sapiens) (UniProt Q9ULI0); settings: Compound concentration 10.0 uM, Protein concentration 2.0 uM
[33] = biological target: Protein polybromo-1 (Homo sapiens) (UniProt Q86U86); settings: Compound concentration 10.0 uM, Protein concentration 2.0 uM; remark: listed apart in the source
[34] = biological target: Tyrosine-protein kinase BAZ1B (Homo sapiens) (UniProt Q9UIG0); settings: Compound concentration 10.0 uM, Protein concentration 2.0 uM
[35] = biological target: Bromodomain adjacent to zinc finger domain protein 2A (Homo sapiens) (UniProt Q9UIF9); settings: Compound concentration 10.0 uM, Protein concentration 2.0 uM
[36] = biological target: Transcription intermediary factor 1-beta (Homo sapiens) (UniProt Q13263); settings: Compound concentration 10.0 uM, Protein concentration 2.0 uM
[37] = biological target: Protein polybromo-1 (Homo sapiens) (UniProt Q86U86); settings: Compound concentration 10.0 uM, Protein concentration 2.0 uM; remark: listed apart in the source
[38] = biological target: Histone acetyltransferase KAT2A (Homo sapiens) (UniProt Q92830); settings: Compound concentration 10.0 uM, Protein concentration 2.0 uM
Peregrin (Homo sapiens) [39] = biological target: T1, Peregrin (Homo sapiens); test: Alphascreen assay. Domain start/stop: M626-G740; settings: Compound concentration 4.0 uM, Protein concentration 50.0 uM
[40] = biological target: Transcription intermediary factor 1-alpha (Homo sapiens) (UniProt O15164); settings: Compound concentration 10.0 uM, Protein concentration 2.0 uM; remark: listed apart in the source
[41] = biological target: Protein polybromo-1 (Homo sapiens) (UniProt Q86U86); settings: Compound concentration 10.0 uM, Protein concentration 2.0 uM; remark: listed apart in the source
[42] = biological target: SWI/SNF-related matrix-associated actin-dependent regulator of chromatin subfamily A member 2 (Homo sapiens) (UniProt P51531); settings: Compound concentration 10.0 uM, Protein concentration 2.0 uM
[43] = biological target: Protein polybromo-1 (Homo sapiens) (UniProt Q86U86); settings: Compound concentration 10.0 uM, Protein concentration 2.0 uM; remark: listed apart in the source
[44] = biological target: Bromodomain-containing protein 1 (Homo sapiens) (UniProt O95696); settings: Compound concentration 10.0 uM, Protein concentration 2.0 uM
[45] = biological target: PH-interacting protein (Homo sapiens) (UniProt Q8WWQ0); settings: Compound concentration 10.0 uM, Protein concentration 2.0 uM
Peregrin (Homo sapiens) [46] = biological target: T1, Peregrin (Homo sapiens); settings: Compound concentration 10.0 uM, Protein concentration 2.0 uM; remark: listed apart in the source
[47] = biological target: Bromodomain-containing protein 9 (Homo sapiens) (UniProt Q9H8M2); test: Alphascreen assay. Domain start/stop: L14-Q143; settings: Compound concentration 0.25 uM, Protein concentration 5.0 uM
[48] = biological target: Bromodomain adjacent to zinc finger domain protein 2B (Homo sapiens) (UniProt Q9UIF8); settings: Compound concentration 10.0 uM, Protein concentration 2.0 uM
[49] = biological target: Bromodomain and WD repeat-containing protein 3 (Homo sapiens) (UniProt Q6RI45); settings: Compound concentration 10.0 uM, Protein concentration 2.0 uM
[50] = biological target: Nuclear body protein SP140 (Homo sapiens) (UniProt Q13342); settings: Compound concentration 10.0 uM, Protein concentration 2.0 uM
[51] = biological target: Bromodomain-containing protein 3 (Homo sapiens) (UniProt Q15059); settings: Compound concentration 10.0 uM, Protein concentration 2.0 uM; remark: listed apart in the source
[52] = biological target: Histone acetyltransferase p300 (Homo sapiens) (UniProt Q09472); settings: Compound concentration 10.0 uM, Protein concentration 2.0 uM

Chain of Chromatin remodeling regulator CECR2 (Homo sapiens) (Q9BXF3 whole entry, looked up): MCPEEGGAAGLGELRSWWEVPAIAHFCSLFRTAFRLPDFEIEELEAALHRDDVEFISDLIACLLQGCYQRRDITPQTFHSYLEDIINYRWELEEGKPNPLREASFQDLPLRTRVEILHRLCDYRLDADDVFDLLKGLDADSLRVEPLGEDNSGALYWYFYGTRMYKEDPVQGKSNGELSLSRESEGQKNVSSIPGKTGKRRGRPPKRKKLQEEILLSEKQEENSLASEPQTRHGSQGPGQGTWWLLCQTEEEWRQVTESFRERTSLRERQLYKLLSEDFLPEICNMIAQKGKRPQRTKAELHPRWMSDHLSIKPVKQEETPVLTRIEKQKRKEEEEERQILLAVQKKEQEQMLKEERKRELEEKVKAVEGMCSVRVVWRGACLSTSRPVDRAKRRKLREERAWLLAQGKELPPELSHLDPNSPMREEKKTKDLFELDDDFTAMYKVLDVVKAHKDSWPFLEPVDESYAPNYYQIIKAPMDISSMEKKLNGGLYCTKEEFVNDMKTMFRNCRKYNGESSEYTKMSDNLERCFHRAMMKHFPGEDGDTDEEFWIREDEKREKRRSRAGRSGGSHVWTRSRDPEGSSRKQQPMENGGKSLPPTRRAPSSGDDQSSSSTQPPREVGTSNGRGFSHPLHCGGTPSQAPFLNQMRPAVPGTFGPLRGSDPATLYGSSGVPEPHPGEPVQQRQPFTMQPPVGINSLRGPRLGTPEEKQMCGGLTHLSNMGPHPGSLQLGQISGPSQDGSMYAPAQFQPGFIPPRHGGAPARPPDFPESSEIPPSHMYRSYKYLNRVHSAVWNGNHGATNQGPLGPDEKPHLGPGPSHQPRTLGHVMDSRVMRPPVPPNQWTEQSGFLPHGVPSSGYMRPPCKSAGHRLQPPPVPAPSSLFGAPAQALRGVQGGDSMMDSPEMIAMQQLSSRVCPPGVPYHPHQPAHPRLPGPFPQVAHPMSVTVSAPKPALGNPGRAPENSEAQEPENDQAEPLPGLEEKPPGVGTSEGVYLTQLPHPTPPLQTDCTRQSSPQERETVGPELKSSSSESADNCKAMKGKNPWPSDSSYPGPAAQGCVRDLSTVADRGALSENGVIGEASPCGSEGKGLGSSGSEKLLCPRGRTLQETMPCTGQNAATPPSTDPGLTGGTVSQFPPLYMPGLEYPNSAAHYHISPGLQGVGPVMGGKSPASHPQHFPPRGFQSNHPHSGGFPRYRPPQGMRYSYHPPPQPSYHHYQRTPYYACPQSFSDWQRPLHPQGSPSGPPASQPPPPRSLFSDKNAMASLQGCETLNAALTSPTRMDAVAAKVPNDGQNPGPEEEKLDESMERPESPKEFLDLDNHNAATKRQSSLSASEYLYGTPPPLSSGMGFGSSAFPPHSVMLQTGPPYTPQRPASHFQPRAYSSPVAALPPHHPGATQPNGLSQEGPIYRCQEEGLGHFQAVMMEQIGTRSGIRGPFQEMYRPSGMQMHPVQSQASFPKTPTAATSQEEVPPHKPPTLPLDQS
Chain of Protein polybromo-1 (Homo sapiens) (Q86U86 whole entry, the tested form may be a part): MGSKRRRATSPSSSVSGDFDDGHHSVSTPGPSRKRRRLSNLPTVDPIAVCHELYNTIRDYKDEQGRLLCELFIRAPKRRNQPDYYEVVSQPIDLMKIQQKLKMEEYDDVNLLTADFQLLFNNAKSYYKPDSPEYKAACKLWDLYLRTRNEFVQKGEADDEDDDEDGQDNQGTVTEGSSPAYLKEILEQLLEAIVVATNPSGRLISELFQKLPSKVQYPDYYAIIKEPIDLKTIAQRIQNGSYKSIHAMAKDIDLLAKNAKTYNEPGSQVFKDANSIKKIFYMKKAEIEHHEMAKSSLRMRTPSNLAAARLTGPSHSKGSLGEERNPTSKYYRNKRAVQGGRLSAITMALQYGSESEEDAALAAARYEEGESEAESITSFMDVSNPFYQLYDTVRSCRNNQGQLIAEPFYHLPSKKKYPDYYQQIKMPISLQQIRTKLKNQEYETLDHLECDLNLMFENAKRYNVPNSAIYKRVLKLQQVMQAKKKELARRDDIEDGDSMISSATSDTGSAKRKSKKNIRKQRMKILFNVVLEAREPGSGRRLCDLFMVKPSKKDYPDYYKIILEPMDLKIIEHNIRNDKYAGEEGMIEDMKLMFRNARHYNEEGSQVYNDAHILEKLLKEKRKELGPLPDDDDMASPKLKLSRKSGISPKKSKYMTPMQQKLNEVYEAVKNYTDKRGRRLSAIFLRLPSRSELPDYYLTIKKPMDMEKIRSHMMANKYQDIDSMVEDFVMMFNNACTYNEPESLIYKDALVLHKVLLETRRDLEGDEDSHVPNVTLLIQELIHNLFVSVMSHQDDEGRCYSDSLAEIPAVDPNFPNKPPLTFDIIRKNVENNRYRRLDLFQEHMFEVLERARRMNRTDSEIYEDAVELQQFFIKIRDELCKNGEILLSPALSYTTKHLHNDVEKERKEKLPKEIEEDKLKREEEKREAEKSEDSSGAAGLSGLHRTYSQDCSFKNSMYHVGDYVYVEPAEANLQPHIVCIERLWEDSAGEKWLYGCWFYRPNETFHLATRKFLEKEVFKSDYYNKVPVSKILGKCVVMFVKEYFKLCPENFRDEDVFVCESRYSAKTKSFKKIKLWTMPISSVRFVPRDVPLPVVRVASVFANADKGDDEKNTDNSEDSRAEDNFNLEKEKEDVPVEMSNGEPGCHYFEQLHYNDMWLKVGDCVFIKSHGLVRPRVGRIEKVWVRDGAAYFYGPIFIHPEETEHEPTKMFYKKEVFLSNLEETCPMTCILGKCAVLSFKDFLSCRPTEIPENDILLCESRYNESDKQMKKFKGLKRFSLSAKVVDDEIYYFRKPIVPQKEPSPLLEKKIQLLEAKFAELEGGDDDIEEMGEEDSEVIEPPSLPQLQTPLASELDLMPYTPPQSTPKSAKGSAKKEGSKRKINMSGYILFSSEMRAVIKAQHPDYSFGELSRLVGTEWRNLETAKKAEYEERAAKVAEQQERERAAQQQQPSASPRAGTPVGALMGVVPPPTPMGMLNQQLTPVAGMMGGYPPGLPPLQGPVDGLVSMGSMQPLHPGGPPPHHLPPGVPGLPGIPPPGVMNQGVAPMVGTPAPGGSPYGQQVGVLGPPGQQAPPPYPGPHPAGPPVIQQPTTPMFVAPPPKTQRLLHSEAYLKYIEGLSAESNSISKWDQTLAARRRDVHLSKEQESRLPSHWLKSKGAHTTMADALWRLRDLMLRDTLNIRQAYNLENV
Chain of Bromodomain-containing protein 3 (Homo sapiens) (Q15059 2-726 limits assumed): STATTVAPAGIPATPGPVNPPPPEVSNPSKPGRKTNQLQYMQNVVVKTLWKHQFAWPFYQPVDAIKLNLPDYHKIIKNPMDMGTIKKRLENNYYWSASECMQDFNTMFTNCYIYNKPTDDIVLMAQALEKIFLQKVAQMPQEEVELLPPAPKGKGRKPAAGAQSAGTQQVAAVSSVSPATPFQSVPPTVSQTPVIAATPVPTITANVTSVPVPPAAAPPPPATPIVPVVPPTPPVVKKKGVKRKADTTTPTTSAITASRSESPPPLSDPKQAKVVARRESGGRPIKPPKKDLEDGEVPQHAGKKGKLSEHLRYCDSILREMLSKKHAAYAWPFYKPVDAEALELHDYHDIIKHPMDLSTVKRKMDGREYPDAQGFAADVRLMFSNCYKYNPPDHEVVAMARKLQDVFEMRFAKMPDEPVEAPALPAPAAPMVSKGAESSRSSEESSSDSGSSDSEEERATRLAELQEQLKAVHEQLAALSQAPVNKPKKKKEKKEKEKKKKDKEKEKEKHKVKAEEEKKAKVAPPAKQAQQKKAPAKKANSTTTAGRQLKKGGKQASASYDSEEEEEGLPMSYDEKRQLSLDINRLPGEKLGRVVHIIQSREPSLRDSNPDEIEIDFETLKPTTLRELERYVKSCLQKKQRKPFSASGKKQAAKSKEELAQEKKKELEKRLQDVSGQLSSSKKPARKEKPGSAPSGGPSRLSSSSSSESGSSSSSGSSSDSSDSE
Chain of Bromodomain-containing protein 2 (Homo sapiens) (P25440 whole entry, looked up): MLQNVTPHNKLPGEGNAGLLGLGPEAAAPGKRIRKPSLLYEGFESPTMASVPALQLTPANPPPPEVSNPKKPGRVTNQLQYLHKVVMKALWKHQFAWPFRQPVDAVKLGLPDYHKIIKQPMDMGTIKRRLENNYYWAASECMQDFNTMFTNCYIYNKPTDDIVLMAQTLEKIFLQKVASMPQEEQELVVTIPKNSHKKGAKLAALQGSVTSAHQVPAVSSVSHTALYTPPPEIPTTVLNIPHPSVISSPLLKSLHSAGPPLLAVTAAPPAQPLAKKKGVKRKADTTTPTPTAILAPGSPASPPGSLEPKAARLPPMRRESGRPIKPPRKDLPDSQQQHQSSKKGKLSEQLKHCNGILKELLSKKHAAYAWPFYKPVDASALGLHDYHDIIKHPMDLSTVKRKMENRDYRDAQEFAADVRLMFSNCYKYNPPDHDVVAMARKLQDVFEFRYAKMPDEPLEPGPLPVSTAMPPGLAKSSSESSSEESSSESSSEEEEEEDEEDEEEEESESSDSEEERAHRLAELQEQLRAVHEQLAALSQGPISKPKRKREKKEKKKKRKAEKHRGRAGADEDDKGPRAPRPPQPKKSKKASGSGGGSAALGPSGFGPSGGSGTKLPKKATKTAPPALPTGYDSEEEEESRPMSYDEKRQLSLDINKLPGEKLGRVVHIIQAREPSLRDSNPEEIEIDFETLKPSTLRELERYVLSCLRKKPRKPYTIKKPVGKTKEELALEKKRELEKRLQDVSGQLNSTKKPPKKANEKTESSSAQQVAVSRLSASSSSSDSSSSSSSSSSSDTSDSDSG

CCn1cc(-c2cccc(C(F)(F)F)c2)c2sc(C(=N)NC3CCS(=O)(=O)CC3)cc2c1=O
ΔTm [1]: 2.54 °C | ΔTm [2]: 11.1 °C | ΔTm [3]: 9.43 °C | ΔTm (Peregrin (Homo sapiens) [4]): 1.32 °C | ΔTm [5]: 0.59 °C | ΔTm [6]: 0.5 °C | ΔTm [7]: 1.17 °C | ΔTm [8]: 0.58 °C | ΔTm [9]: 14.4 °C | ΔTm [10]: 0.9 °C | ΔTm [11]: 3.6 °C | inhibition ([12]; Compound concentration 0.25 uM): 4.99% | inhibition ([12]; Compound concentration 4.0 uM): 99.5% | ΔTm [13]: 1.39 °C | ΔTm [14]: 0.69 °C | ΔTm [15]: 0.99 °C | ΔTm [16]: 1.09 °C | ΔTm [17]: 0.44 °C | ΔTm [18]: 0.49 °C | ΔTm [19]: 1.37 °C | inhibition ([20]; Compound concentration 0.25 uM, Protein concentration 20.0 uM): -2.87% | inhibition ([20]; Compound concentration 4.0 uM, Protein concentration 19.0 uM): -1.93% | ΔTm [21]: 2.77 °C | ΔTm [22]: 5.94 °C | ΔTm [23]: 3 °C | ΔTm [24]: 1.92 °C | ΔTm [25]: 0.36 °C | ΔTm [26]: 1.17 °C | ΔTm [27]: 0.71 °C | ΔTm [28]: 1.74 °C | ΔTm [29]: 0.74 °C | ΔTm [30]: 0.42 °C | ΔTm [31]: 0.68 °C | ΔTm [32]: 0.97 °C | ΔTm [33]: 0.36 °C | ΔTm [34]: 0.68 °C | ΔTm [35]: 0.67 °C | ΔTm [36]: 0.66 °C | ΔTm [37]: 0.63 °C | ΔTm [38]: 1.26 °C | inhibition (Peregrin (Homo sapiens) [39]): 18.8% | ΔTm [40]: 1.86 °C | ΔTm [41]: 0.36 °C | ΔTm [42]: 0.72 °C | ΔTm [43]: 0.54 °C | ΔTm [44]: 0.98 °C | ΔTm [45]: 0.95 °C | ΔTm (Peregrin (Homo sapiens) [46]): 2.66 °C | inhibition [47]: 94.3% | ΔTm [48]: 0.84 °C | ΔTm [49]: 2.31 °C | ΔTm [50]: 1.36 °C | ΔTm [51]: 1.79 °C | ΔTm [52]: 6.07 °C
